Test results taken from patent US12617758B2, “Quinazoline derivative having FLT3 inhibitory activity, and use thereof” (INDUSTRY-UNIVERSITY COOPERATION FOUNDATION HANYANG …, priority 2020, dated 2026).

Tests used:
Assay type in all cases: biochemical
[1] = biological target: T1, FLT (ITD) (Homo sapiens, UniProt P36888); assay: FLT (ITD) enzyme activity (IC50); settings: read-out: FLT (ITD) IC50
T1 sequence (P36888 1-993): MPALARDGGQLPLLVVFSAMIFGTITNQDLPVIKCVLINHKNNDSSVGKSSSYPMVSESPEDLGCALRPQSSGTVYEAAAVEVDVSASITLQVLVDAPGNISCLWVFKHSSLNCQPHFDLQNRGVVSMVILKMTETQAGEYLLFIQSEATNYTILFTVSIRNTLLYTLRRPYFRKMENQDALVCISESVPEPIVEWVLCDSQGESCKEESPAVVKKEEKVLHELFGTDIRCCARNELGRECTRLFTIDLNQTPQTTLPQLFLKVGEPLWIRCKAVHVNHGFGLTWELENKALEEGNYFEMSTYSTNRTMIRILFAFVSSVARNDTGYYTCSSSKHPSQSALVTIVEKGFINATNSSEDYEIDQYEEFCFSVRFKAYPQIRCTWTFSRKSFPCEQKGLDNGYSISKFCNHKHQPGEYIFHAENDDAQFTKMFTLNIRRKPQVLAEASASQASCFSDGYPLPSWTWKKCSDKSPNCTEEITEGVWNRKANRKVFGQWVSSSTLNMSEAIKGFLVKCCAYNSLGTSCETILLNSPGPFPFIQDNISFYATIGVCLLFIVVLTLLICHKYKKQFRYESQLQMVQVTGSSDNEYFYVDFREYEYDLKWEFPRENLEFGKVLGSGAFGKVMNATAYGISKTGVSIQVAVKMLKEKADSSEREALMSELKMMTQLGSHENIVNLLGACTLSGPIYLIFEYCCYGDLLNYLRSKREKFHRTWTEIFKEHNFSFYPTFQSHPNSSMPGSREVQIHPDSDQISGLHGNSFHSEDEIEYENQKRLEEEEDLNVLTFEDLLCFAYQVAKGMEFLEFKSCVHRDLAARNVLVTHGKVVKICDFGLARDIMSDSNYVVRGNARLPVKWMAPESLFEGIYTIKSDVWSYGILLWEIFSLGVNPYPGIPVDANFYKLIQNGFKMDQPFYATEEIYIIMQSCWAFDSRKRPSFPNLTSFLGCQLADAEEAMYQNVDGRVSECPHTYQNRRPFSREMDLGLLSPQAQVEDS
Description: (§1) Experimental Example 1. Measurement of FLT3 and FLT Enzyme Activity
(§2) Changes in FLT3 and FLT enzyme activities by treatment with the quinazoline derivatives of the following Table 1 according to the present invention were confirmed by IC50.

[2] = biological target: T2, FLT3 (Homo sapiens, UniProt P36888); assay: FLT3 enzyme activity (IC50); settings: read-out: FLT3 IC50
T2 sequence (P36888 27-993): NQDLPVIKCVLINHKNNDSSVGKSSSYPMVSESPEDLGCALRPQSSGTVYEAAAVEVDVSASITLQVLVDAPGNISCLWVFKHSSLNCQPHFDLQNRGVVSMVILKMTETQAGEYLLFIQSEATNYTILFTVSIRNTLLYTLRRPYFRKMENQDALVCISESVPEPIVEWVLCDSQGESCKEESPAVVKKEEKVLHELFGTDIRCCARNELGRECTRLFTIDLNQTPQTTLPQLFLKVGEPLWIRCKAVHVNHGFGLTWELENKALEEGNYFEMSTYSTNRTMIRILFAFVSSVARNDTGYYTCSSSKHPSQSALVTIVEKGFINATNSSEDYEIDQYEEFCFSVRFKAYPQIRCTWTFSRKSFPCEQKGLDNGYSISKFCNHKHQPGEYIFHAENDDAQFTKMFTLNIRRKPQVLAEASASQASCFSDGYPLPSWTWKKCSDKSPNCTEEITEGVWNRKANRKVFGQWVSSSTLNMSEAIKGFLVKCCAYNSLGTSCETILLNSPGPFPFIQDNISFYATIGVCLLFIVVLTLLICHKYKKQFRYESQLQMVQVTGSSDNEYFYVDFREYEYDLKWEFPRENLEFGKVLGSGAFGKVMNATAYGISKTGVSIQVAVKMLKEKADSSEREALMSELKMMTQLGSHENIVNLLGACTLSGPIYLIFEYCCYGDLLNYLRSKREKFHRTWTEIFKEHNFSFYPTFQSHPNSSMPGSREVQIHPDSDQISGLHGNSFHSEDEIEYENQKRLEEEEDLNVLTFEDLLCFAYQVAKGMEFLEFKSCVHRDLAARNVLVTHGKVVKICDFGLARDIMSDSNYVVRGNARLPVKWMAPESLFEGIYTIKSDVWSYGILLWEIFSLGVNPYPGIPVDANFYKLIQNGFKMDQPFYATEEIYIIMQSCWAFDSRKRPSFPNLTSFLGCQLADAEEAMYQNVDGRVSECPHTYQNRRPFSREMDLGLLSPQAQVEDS
Description: as §1, §2

[3] = biological target: RIPK3 (Homo sapiens, UniProt Q9Y572); assay: Kinase panel screening; settings: read-out: IC50 (nM), data of GW5074, control GW5074 instead of staurosporine
RIPK3, sequence (Q9Y572 whole entry, species assumed): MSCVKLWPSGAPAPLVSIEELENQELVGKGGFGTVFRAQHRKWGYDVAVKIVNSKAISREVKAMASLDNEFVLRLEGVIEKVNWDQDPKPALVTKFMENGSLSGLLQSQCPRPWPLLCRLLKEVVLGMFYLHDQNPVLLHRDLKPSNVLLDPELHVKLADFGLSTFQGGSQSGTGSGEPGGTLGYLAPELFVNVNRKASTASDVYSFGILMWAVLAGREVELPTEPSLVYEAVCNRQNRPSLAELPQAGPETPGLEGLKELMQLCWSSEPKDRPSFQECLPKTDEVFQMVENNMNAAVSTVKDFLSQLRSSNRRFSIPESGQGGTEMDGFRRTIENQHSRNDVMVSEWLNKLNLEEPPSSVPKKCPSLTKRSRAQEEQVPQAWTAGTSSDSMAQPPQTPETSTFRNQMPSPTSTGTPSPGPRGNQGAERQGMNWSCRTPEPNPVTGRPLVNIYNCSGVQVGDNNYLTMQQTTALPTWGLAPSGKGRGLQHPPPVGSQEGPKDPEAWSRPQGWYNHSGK
Method: Next, kinase panel screening for Compound 7d was investigated for 36 different kinases at a single dose of 10 μM (FIG. 1 and Table 3).

[4] = biological target: ERK1 (Homo sapiens, UniProt P27361); assay: Kinase panel screening; settings: control SCH772984 instead of staurosporine
ERK1, sequence (P27361 whole entry, species assumed): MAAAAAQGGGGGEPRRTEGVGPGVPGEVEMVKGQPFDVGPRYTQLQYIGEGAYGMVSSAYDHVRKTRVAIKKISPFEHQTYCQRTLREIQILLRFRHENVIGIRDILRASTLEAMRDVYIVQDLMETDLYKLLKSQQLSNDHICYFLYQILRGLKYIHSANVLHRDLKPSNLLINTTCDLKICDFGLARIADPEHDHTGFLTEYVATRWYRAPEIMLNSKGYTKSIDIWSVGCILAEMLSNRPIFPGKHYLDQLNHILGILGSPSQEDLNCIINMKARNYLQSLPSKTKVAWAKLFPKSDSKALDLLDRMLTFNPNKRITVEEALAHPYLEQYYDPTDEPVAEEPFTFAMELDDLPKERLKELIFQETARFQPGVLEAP

Structure (SMILES)	IC50 [1]	IC50 [2]	IC50 [3]	IC50 [4]
Cc1oncc1C(=O)Nc1ccc2cnc(-c3ccc(N4CCOCC4)c(C(F)(F)F)c3)nc2c1 [Compound 7a, 5-methyl-N-(2-(4-morpholino-5-(trifluoromethyl)phenyl)quinazolin-7-yl)isoxazole-4-carboxamide]	> 10 µM	> 10 µM	–	–
Cc1oncc1C(=O)Nc1ccc2cnc(-c3cc(N4CCOCC4)cc(C(F)(F)F)c3)nc2c1 [Compound 7b, 5-methyl-N-(2-(3-morpholino-5-(trifluoromethyl)phenyl)quinzolin-7-yl)isoxazole-4-carboxamide]	3 to 10 µM	3 to 10 µM	–	–
Cc1cn(-c2cc(-c3ncc4ccc(NC(=O)c5cnoc5C)cc4n3)cc(C(F)(F)F)c2)cn1 [Compound 7c, 5-methyl-N-(2-(3-(4-methyl-1H-imidazol-1-yl)-5-(trifluoromethyl)phenyl)quinazolin-7-yl)isoxazole-4-carboxamide]	< 3 µM	< 3 µM	–	–
CCN1CCN(Cc2cc(-c3ncc4ccc(NC(=O)c5cnoc5C)cc4n3)cc(C(F)(F)F)c2)CC1 [Compound 7e, N-(2-(3-((4-ethylpiperazin-1-yl)methyl)-5-(trifluoromethyl)phenyl)quinazolin-7-yl)-5-methylisoxazole-4-carboxamide]	3 to 10 µM	< 3 µM	–	–
Cc1oncc1C(=O)Nc1ccc2cnc(-c3cc(F)cc(C(F)(F)F)c3)nc2c1 [Compound 7f, N-(2-(3-fluoro-5-(trifluoromethyl)phenyl)quinazolin-7-yl)-5-methylisoxazole-4-carboxamide]	> 10 µM	> 10 µM	–	–
Cc1oncc1C(=O)Nc1ccc2cnc(-c3ccc(Cl)c(C(F)(F)F)c3)nc2c1 [Compound 7g, N-(2-(4-chloro-3-(trifluoromethyl)phenyl)quinazolin-7-yl)-5-methylisoxazole-4-carboxamide]	> 10 µM	> 10 µM	–	–
Cc1oncc1C(=O)Nc1ccc2cnc(-c3cnn(-c4ccccc4)c3C(F)(F)F)nc2c1 [Compound 7h, 5-methyl-N-(2-(1-phenyl-5-(trifluoromethyl)-1H-pyrazol-4-yl)quinazolin-7-yl)isoxazole-4-carboxamide]	> 10 µM	> 10 µM	–	–
Cc1oncc1C(=O)Nc1ccc2cnc(-c3cccc(Cl)c3)nc2c1 [Compound 7i, N-(2-(3-chlorophenyl)quinazolin-7-yl)-5-methylisoxazole-4-carboxamide]	> 10 µM	> 10 µM	–	–
COc1ccc(/C=C/c2ncc3ccc(NC(=O)c4cnoc4C)cc3n2)cc1 [Compound 7j, (E)-N-(2-(4-methoxystyryl)quinazolin-7-yl)-5-methylisoxazole-4-carboxamide]	> 10 µM	3 to 10 µM	–	–
Cc1oncc1C(=O)Nc1ccc2cnc(/C=C/c3ccc(Cl)cc3)nc2c1 [Compound 7k, (E)-N-(2-(4-chlorostyryl)quinazolin-7-yl)-5-methylisoxazole-4-carboxamide]	> 10 µM	> 10 µM	–	–
Cc1oncc1C(=O)Nc1ccc2cnc(-c3cc(C(C)(C)C)on3)nc2c1 [Compound 7l, N-(2-(5-(tert-butyl)isoxazol-3-yl)quinazolin-7-yl)-5-methylisoxazole-4-carboxamide]	> 10 µM	> 10 µM	–	–
Cc1oncc1C(=O)Nc1ccc2cnc(-c3cc(OC4CCN(C)CC4)cc(C(F)(F)F)c3)nc2c1 [Compound 7n, 5-methyl-N-(2-(3-((1-methylpiperidin-4-yl)oxy)-5-(trifluoromethyl)phenyl)quinazolin-7-yl)isoxazole-4-carboxamide]	3 to 10 µM	3 to 10 µM	–	–
CC(=O)N1CCC(c2ncc3ccc(NC(=O)c4cnoc4C)cc3n2)CC1 [Compound 7o, N-(2-(1-acetylpiperidin-4-yl)quinazolin-7-yl)-5-methylisoxazole-4-carboxamide]	> 10 µM	> 10 µM	–	–
Cc1oncc1C(=O)Nc1ccc2cnc(-c3ccncc3)nc2c1 [Compound 7p, 5-methyl-N-(2-(pyridin-4-yl)quinazolin-7-yl)isoxazole-4-carboxamide]	> 10 µM	> 10 µM	–	–
Cc1oncc1C(=O)Nc1ccc2cnc(-c3ccccn3)nc2c1 [Compound 7q, 5-methyl-N-(2-(pyridin-2-yl)quinazolin-7-yl)isoxazole-4-carboxamide]	> 10 µM	> 10 µM	–	–
Cc1oncc1C(=O)Nc1ccc2cnc(-c3ccc(Cl)c(Cl)c3)nc2c1 [Compound 7r, N-(2-(3,4-dichlorophenyl)quinazolin-7-yl)-5-methylisoxazole-4-carboxamide]	> 10 µM	> 10 µM	–	–
Cc1oncc1C(=O)Nc1ccc2cnc(Cc3ccc(F)cc3)nc2c1 [Compound 7s, N-(2-(4-fluorobenzyl)quinazolin-7-yl)-5-methylisoxazole-4-carboxamide]	> 10 µM	> 10 µM	–	–
Cc1oncc1C(=O)Nc1ccc2cnc(Cc3ccccc3C(F)(F)F)nc2c1 [Compound 7t, 5-methyl-N-(2-(2-(trifluoromethyl)benzyl)quinazolin-7-yl)isoxazole-4-carboxamide]	> 10 µM	> 10 µM	–	–
Cc1oncc1C(=O)Nc1ccc2cnc(-c3ccc4ccccc4c3)nc2c1 [Compound 7u, 5-methyl-N-(2-(naphthalen-2-yl)quinazolin-7-yl)isoxazole-4-carboxamide]	> 10 µM	> 10 µM	–	–
Cc1oncc1C(=O)Nc1ccc2cnc(-c3ccc4c(c3)CCO4)nc2c1 [Compound 7v, N-(2-(2,3-dihydrobenzofuran-5-yl)quinazolin-7-yl)-5-methylisoxazole-4-carboxamide]	> 10 µM	> 10 µM	–	–
COc1ccc(CCc2ncc3ccc(NC(=O)c4cnoc4C)cc3n2)cc1 [Compound 7w, N-(2-(4-methoxyphenethyl)quinazolin-7-yl)-5-methylisoxazole-4-carboxamide]	> 10 µM	> 10 µM	–	–
O=C1Nc2ccc(I)cc2/C1=C/c1cc(Br)c(O)c(Br)c1 [GW5074, reference compound]	–	–	1650 nM	–
O=C(Nc1ccc2[nH]nc(-c3ccncc3)c2c1)[C@@H]1CCN(CC(=O)N2CCN(c3ccc(-c4ncccn4)cc3)CC2)C1 [SCH772984, reference compound]	–	–	–	4.47 nM
